According to ChEMBL document CHEMBL1201862, “PubChem BioAssay data set” (2004):
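Interpolation was linear, between the two tested concentrations surrounding the appropriate level; five concentrations were tested over 48 hours in 96-well plates. Abbreviation: GI50, concentration required for 50% inhibition of growth.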 The source made the active and inactive calls. Rule as the data show it: active = GI50 up to about 1.1 µM and inactive = higher.

Experiments:
Assay in all cases: growth of human tumour cells (NCI), 48 h
CAKI-1 = system: CAKI-1
NCI-H23 = system: NCI-H23
CCRF-CEM = system: CCRF-CEM
SW-620 = system: SW-620
IGROV-1 = system: IGROV-1
MOLT-4 = system: MOLT-4
HOP-18 = system: HOP-18
K562 = system: K562
SK-MEL-2 = system: SK-MEL-2
HT-29 = system: HT-29
HCT-15 = system: HCT-15
M14 = system: M14
UACC-62 = system: UACC-62
KM-20L2 = system: KM-20L2
HCC 2998 = system: HCC 2998
UO-31 = system: UO-31
NCI-H460 = system: NCI-H460
HCT-116 = system: HCT-116
NCI-H226 = system: NCI-H226

## O=C(NN1C(=O)CSC1c1ccc(Cl)c(Cl)c1)c1ccncc1 (stereo unspecified)
CAKI-1
  GI50: > 100 µM (inactive)
NCI-H23
  GI50: 84.7 µM (inactive)
CCRF-CEM
  GI50: 77.3 µM (inactive)
SW-620
  GI50: > 100 µM (inactive)
IGROV-1
  GI50: 34.4 µM (inactive)
MOLT-4
  GI50: 67.8 µM (inactive)
HOP-18
  GI50: < 0.01 µM (active)
K562
  GI50: 37.8 µM (inactive)
SK-MEL-2
  GI50: 83.8 µM (inactive)
HT-29
  GI50: 60.1 µM (inactive)
HCT-15
  GI50: 72.6 µM
M14
  GI50: 44.5 µM (inactive)
UACC-62
  GI50: 31.8 µM (inactive)
KM-20L2
  GI50: 74.6 µM (inactive)
HCC 2998
  GI50: 46.2 µM (inactive)
UO-31
  GI50: 85.1 µM (inactive)

## [O-]c1on[n+]2c1c(Nc1ccc(Cl)cc1)nc1ccccc12
NCI-H460
  GI50: > 100 µM (inactive)
NCI-H23
  GI50: > 100 µM (inactive)
CCRF-CEM
  GI50: > 100 µM (inactive)
HCT-116
  GI50: > 100 µM (inactive)
SW-620
  GI50: > 100 µM (inactive)
IGROV-1
  GI50: > 100 µM (inactive)
MOLT-4
  GI50: > 100 µM (inactive)
K562
  GI50: > 100 µM (inactive)
HT-29
  GI50: > 100 µM (inactive)
M14
  GI50: > 100 µM (inactive)
UACC-62
  GI50: > 100 µM (inactive)
KM-20L2
  GI50: > 100 µM (inactive)
HCC 2998
  GI50: > 100 µM (inactive)
UO-31
  GI50: > 100 µM (inactive)

## CN1C(=N\S(=O)(=O)c2ccc(Cl)cc2)/C(=N/N=P(c2ccccc2)(c2ccccc2)c2ccccc2)c2ccccc21
NCI-H460
  GI50: > 100 µM (inactive)
CAKI-1
  GI50: > 100 µM (inactive)
NCI-H23
  GI50: > 100 µM (inactive)
NCI-H226
  GI50: 73.3 µM (inactive)
CCRF-CEM
  GI50: > 100 µM (inactive)
HCT-116
  GI50: > 100 µM (inactive)
SW-620
  GI50: > 100 µM (inactive)
IGROV-1
  GI50: > 100 µM (inactive)
MOLT-4
  GI50: > 100 µM (inactive)
K562
  GI50: > 100 µM (inactive)
SK-MEL-2
  GI50: > 100 µM (inactive)
HT-29
  GI50: > 100 µM (inactive)
HCT-15
  GI50: > 100 µM
M14
  GI50: > 100 µM (inactive)
UACC-62
  GI50: > 100 µM (inactive)
KM-20L2
  GI50: > 100 µM (inactive)
HCC 2998
  GI50: > 100 µM (inactive)
UO-31
  GI50: > 100 µM (inactive)

## CC(=O)N[C@@H]1C(O)CN2C(=O)C(=O)O[C@H](C(O)CO)[C@@H]12 (stereo partly specified)
NCI-H460
  GI50: > 100 µM (inactive)
CCRF-CEM
  GI50: > 100 µM (inactive)
HCT-116
  GI50: > 100 µM (inactive)
SW-620
  GI50: > 100 µM (inactive)
IGROV-1
  GI50: > 100 µM (inactive)
MOLT-4
  GI50: > 100 µM (inactive)
HOP-18
  GI50: 74 µM (inactive)
K562
  GI50: > 100 µM (inactive)
SK-MEL-2
  GI50: > 100 µM (inactive)
HT-29
  GI50: > 100 µM (inactive)
KM-20L2
  GI50: > 100 µM (inactive)
HCC 2998
  GI50: > 100 µM (inactive)
UO-31
  GI50: > 100 µM (inactive)

## Cc1ccc2c(c1)C1C(CO2)C(c2ccccc2)=NN1c1ccccc1 (stereo unspecified)
NCI-H460
  GI50: > 100 µM (inactive)
NCI-H23
  GI50: > 100 µM (inactive)
CCRF-CEM
  GI50: > 100 µM (inactive)
HCT-116
  GI50: > 100 µM (inactive)
SW-620
  GI50: > 100 µM (inactive)
IGROV-1
  GI50: > 100 µM (inactive)
MOLT-4
  GI50: 96.2 µM (inactive)
HOP-18
  GI50: > 100 µM (inactive)
K562
  GI50: > 100 µM (inactive)
SK-MEL-2
  GI50: > 100 µM (inactive)
HT-29
  GI50: 69.5 µM (inactive)
KM-20L2
  GI50: > 100 µM (inactive)
HCC 2998
  GI50: 95.5 µM (inactive)
UO-31
  GI50: > 100 µM (inactive)

## COC(=O)Cc1cc(=O)n2c([nH]c3ccccc32)c1C#N
NCI-H460
  GI50: 35.9 µM (inactive)
CAKI-1
  GI50: > 100 µM (inactive)
NCI-H23
  GI50: > 100 µM (inactive)
NCI-H226
  GI50: > 100 µM (inactive)
HCT-116
  GI50: > 100 µM (inactive)
SW-620
  GI50: > 100 µM (inactive)
IGROV-1
  GI50: > 100 µM (inactive)
MOLT-4
  GI50: > 100 µM (inactive)
K562
  GI50: > 100 µM (inactive)
SK-MEL-2
  GI50: > 100 µM (inactive)
HT-29
  GI50: > 100 µM (inactive)
HCT-15
  GI50: > 100 µM
M14
  GI50: > 100 µM (inactive)
KM-20L2
  GI50: > 100 µM (inactive)
HCC 2998
  GI50: > 100 µM (inactive)
UO-31
  GI50: 61 µM (inactive)

## Cc1cc(Cl)ccc1NC(=O)CCCC(=O)C(C(=O)c1ccccc1)c1ccccc1 (stereo unspecified)
NCI-H460
  GI50: > 100 µM (inactive)
CAKI-1
  GI50: > 100 µM (inactive)
NCI-H23
  GI50: > 100 µM (inactive)
CCRF-CEM
  GI50: > 100 µM (inactive)
IGROV-1
  GI50: > 100 µM (inactive)
MOLT-4
  GI50: > 100 µM (inactive)
K562
  GI50: > 100 µM (inactive)
SK-MEL-2
  GI50: > 100 µM (inactive)
HT-29
  GI50: > 100 µM (inactive)
HCT-15
  GI50: > 100 µM
M14
  GI50: > 100 µM (inactive)
UACC-62
  GI50: > 100 µM (inactive)
KM-20L2
  GI50: > 100 µM (inactive)
HCC 2998
  GI50: > 100 µM (inactive)

## COC1(OC)CCC2(C)OC(c3ccccc3)C1O2 (stereo unspecified)
NCI-H460
  GI50: > 100 µM (inactive)
CAKI-1
  GI50: > 100 µM (inactive)
NCI-H23
  GI50: > 100 µM (inactive)
NCI-H226
  GI50: > 100 µM (inactive)
CCRF-CEM
  GI50: > 100 µM (inactive)
HCT-116
  GI50: > 100 µM (inactive)
SW-620
  GI50: > 100 µM (inactive)
IGROV-1
  GI50: > 100 µM (inactive)
MOLT-4
  GI50: > 100 µM (inactive)
K562
  GI50: > 100 µM (inactive)
SK-MEL-2
  GI50: > 100 µM (inactive)
HT-29
  GI50: > 100 µM (inactive)
HCT-15
  GI50: > 100 µM
M14
  GI50: > 100 µM (inactive)
UACC-62
  GI50: > 100 µM (inactive)
KM-20L2
  GI50: > 100 µM (inactive)
HCC 2998
  GI50: > 100 µM (inactive)
UO-31
  GI50: > 100 µM (inactive)

## O=P(c1ccccc1)(c1ccccc1)C1CC=C(c2ccccc2)C2(CCCC2)C1 (stereo unspecified)
NCI-H460
  GI50: 59.2 µM (inactive)
CAKI-1
  GI50: 40.6 µM (inactive)
NCI-H23
  GI50: 9.44 µM (inactive)
NCI-H226
  GI50: 44.9 µM (inactive)
CCRF-CEM
  GI50: 33.1 µM (inactive)
HCT-116
  GI50: 45 µM (inactive)
SW-620
  GI50: 81.3 µM (inactive)
IGROV-1
  GI50: 42.7 µM (inactive)
MOLT-4
  GI50: 21.4 µM (inactive)
HOP-18
  GI50: 25.6 µM (inactive)
K562
  GI50: 31.4 µM (inactive)
SK-MEL-2
  GI50: 46.7 µM (inactive)
HT-29
  GI50: 59.2 µM (inactive)
HCT-15
  GI50: 36.1 µM
M14
  GI50: 43.3 µM (inactive)
UACC-62
  GI50: 37.6 µM (inactive)
KM-20L2
  GI50: 33.7 µM (inactive)
UO-31
  GI50: 25.3 µM (inactive)
